5 molecules from patent publication US20090075309A1, “Bisdeoxycoelenterazine derivatives, methods of use, and BRET2 systems” (priority 2007, published 2009) can be followed below.

Like-named read-outs stand apart in the source and are kept apart here.

The experiment concerns the target HT1080 cells stably expressing the GFP2-RLuc8 fusion protein (Renilla reniformis, UniProt P27652, A143M/A55T/C124A/K136R/M185V/M253L/S130A/S287L). The following applies: for signal half-life (time required for the initial light flux to fall to its half-value): HT1080 GFP2-RLuc8 cells, 60 μM derivatives; for intensity of the light signal among the four derivatives: FIG. 3A. On the procedure: The kinetics of the bioluminescent reactions was evaluated by exposing the derivatives to HT1080 cells stably expressing the GFP2-RLuc8 fusion protein and detecting generated light over the course of one hour using cooled charge coupled device camera (FIG. 2).
Human fibrosracoma cell line HT1080 stably expressing GFP2-RLuc8 fusion protein was grown in Dulbecco's modified Eagle high glucose medium (DMEM, Invitrogen, Carlsbad, Calif.) supplemented with 10% fetal bovine serum (FBS), 1% penicillin-streptomycin and 500 μg/mL Zeocin™ (Invitrogen). One day before the luminescence study, 10 000 cells were plated in the 96 well plates (Corning Incorporated, Lowell, Mass.). After the removal of the medium 100 μL of the 5 μM solution of BDC in PBS and 60 μM solution of BDC derivatives in DMSO were added and luminescence measured every five minutes during one hour using an open filter setting. The acquisition time was 10 sec. Images were acquired using a cooled charged-coupled device (CCD) camera IVIS 50 (Caliper Life Sciences, Hopkinton, Mass.) and analyzed using Living Image® software version 2.50.1 (Caliper Life Sciences, Hopkinton, Mass.). Region of interest were drawn, and maximum radiance used as the measure of luminescence. The measurements were done in triplicates.

HT1080 cells stably expressing the GFP2-RLuc8 fusion protein, sequence (P27652 whole entry A55T/C124A/S130A/K136R/A143M/M185V/M253L/S287L, the tested form may be a part): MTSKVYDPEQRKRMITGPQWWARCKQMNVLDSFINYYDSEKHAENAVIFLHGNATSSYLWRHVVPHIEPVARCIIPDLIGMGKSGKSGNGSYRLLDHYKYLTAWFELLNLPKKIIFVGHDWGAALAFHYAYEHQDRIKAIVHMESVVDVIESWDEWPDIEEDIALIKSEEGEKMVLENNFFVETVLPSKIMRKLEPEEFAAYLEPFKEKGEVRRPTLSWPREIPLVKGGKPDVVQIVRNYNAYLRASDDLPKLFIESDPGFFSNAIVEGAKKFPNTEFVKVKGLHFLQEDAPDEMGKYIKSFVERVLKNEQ

As for `O=c1c(Cc2ccccc2)nc2c(Cc3ccccc3)[nH]c(-c3ccccc3)cn1-2` [BDC, bisdeoxycoelenterazine], under “5 μM BDC”, the “signal half-life (time required for the initial light flux to fall to its half-value)” value (“signal half-life” below) was 5 min. For the setting “at the 15 minute time point”, the “loss of initial light emission” value was ~75%.
Consider `CC(C)(C)OC(=O)Oc1c(Cc2ccccc2)nc2c(Cc3ccccc3)nc(-c3ccccc3)cn12` [compound 8, O-Boc-bisdeoxycoelenterazine], for which the “time of peak light emission after exposure to the RLUC8 expressing cells” value is 15 min. Moreover, the “signal half-life” value (5 μM BDC) is ~50 min. Also, the “rate of the bioluminescent reaction / light signal decay (in words)” value (over one hour) is “remained fairly stable over one hour”.
On to “acetoxymethyl-bisdeoxycoelenterazine [compound 9]”, for which the “delay of the emergence of the maximum light signal compared to the parent BDC” value came to 5 min and the “signal half-life” value is “over one”. Moreover, the “rate of the bioluminescent reaction / light signal decay (in words)” value (over one hour) is “slower bioluminescent reactions compared to their ester counterparts”. Also, under “over one hour, listed as acetoxymethyl-BDC”, the “rate of the bioluminescent reaction / light signal decay (in words)” value is given as “slowly decayed with time”.
As for “acetyl-bisdeoxycoelenterazine [compound 7]”, the “intensity of the light signal among the four derivatives” value is listed as “highest light signal”. Where the note is “over one hour”, the “rate of the bioluminescent reaction / light signal decay (in words)” value is on record as “fast light signal decay, similar to BDC”.
For the molecule “pivaloyloxymethyl-bisdeoxycoelenterazine [compound 10]”, the “intensity of the light signal among the four derivatives” value is reported as “lowest” and the “signal half-life” value is “over one”. Moreover, under “24 hours, FIG. 3B”, the “observable signal 24 hours after exposure to the enzyme” value is “the only observable signal 24 hours after exposure to the enzyme came from it”. Under “over one hour”, the “light signal as share of the maximum intensity (lowest value reached)” value was ≥ 88% and the “rate of the bioluminescent reaction / light signal decay (in words)” value is listed as “slower bioluminescent reactions compared to their ester counterparts”. The “rate of the bioluminescent reaction / light signal decay (in words)” value (over one hour, listed as pivaloyloxymethyl-BDC) is “slowest bioluminescent reaction”.
